Test results published in patent US20260167622A1, “PAN-KRAS DEGRADING AGENT, AND PREPARATION METHOD THEREFOR AND USE THEREOF” (LEADINGTAC PHARMACEUTICAL (SHAOXING) CO., LTD., priority 2022, published 2026).

What was measured:
Format in all cases: cell-based
[1] = target: T1, KRAS G12V protein in SW900 cells (Homo sapiens, UniProt P01116, G12V); assay: KRAS degradation assay (Western Blot) in SW900 cells; conditions: 24 h
T1 construct: endogenous in cells; host or cells: SW900
In short: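 DC50 and Dmax were fitted from KRAS band intensity, corrected to β-actin and expressed against untreated control, after Western blotting of 5 μg lysate protein. Cells were exposed for 24 h at 37 °C to 0.03-3000 nM compound (final) with 0.25% DMSO.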

[2] = test system: KRAS G12D mutant human lung cancer cell A427; assay: 3D cell proliferation inhibition assay, A427; conditions: A-427, 168 h, 3D culture, 7 days, CTG
In short: (§1)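 Seven-day 3D growth at 37 °C in low-adsorption wells, 5×10^2 cells/well except MKN1 (1×10^3), final compound range 10000–0.026 nM in 0.2% DMSO. CTG luminescence read-out; percent inhibition set against DMSO and medium-only wells, IC50 by curve fitting.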

[3] = test system: KRAS G12V mutant human lung squamous carcinoma cell SW900; assay: 3D cell proliferation inhibition assay, SW900; conditions: SW900, 168 h, 3D culture, 7 days, CTG
[4] = test system: KRAS WT human gastric cancer cell MKN1; assay: 3D cell proliferation inhibition assay, MKN1; conditions: MKN-1, 168 h, 3D culture, 7 days, CTG
In short: as §1

T1 sequence (P01116 1-188 isoform P01116-2 G12V): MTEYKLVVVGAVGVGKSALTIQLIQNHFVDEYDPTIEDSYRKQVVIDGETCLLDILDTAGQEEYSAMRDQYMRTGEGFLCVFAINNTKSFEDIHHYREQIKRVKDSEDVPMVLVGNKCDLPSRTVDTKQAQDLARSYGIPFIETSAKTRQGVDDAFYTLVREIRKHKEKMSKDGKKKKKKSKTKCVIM

Structure (SMILES)	DC50 [1]	Dmax [1]	IC50 [2]	IC50 [3]	IC50 [4]
C#Cc1c(F)ccc2cc(O)cc(-c3ncc4c(N5CCC[C@@](C)(O)C5)nc(OCC5(CN6CCN(CC7CCC8(CC7)CCN(C(=O)c7ccc(Cl)c(N9CCC(=O)NC9=O)c7)CC8)CC6)CC5)nc4c3F)c12 [Example 1, (R)-1-(2-chloro-5-(9-((4-((1-(((7-(8-ethynyl-7-fluoro-3-hydroxynaphthalen-1-yl)-8-fluoro-4-(3-hydroxy-3-methylpiperidin-1-yl)pyrido[4,3-d]pyrimidin-2-yl)oxy)methyl)cyclopropyl)methyl)piperazin-1-yl)methyl)-3-azaspiro[5.5]undecane-3-carbonyl)phenyl)dihydropyrimidine-2,4(1H,3H)-dione]	≤ 50 nM	80 to 100%	≤ 50 nM	≤ 50 nM	≤ 50 nM
C#Cc1c(F)ccc2cc(O)cc(-c3ncc4c(N5CCC[C@@](C)(O)C5)nc(OCC5(CN6CCN(CC7CCC8(CC7)CCN(C(=O)c7ccc(C)c(N9CCC(=O)NC9=O)c7)CC8)CC6)CC5)nc4c3F)c12 [Example 6, (R)-1-(5-(9-((4-((1-(((7-(8-ethynyl-7-fluoro-3-hydroxynaphthalen-1-yl)-8-fluoro-4-(3-hydroxy-3-methylpiperidin-1-yl)pyrido[4,3-d]pyrimidin-2-yl)oxy)methyl)cyclopropyl)methyl)piperazin-1-yl)methyl)-3-azaspiro[5.5]undecane-3-carbonyl)-2-methylphenyl)dihydropyrimidine-2,4(1H,3H)-dione]	≤ 50 nM	80 to 100%	≤ 50 nM	≤ 50 nM	≤ 50 nM
CCc1c(F)ccc2cc(O)cc(-c3ncc4c(N5CCC[C@@](C)(O)C5)nc(OCC5(CN6CCN(CC7CCC8(CC7)CCN(C(=O)c7ccc(Cl)c(N9CCC(=O)NC9=O)c7)CC8)CC6)CC5)nc4c3F)c12 [Example 2, (R)-1-(2-chloro-5-(9-((4-((1-(((7-(8-ethyl-7-fluoro-3-hydroxynaphthalen-1-yl)-8-fluoro-4-(3-hydroxy-3-methylpiperidin-1-yl)pyrido[4,3-d]pyrimidin-2-yl)oxy)methyl)cyclopropyl)methyl)piperazin-1-yl)methyl)-3-azaspiro[5.5]undecane-3-carbonyl)phenyl)dihydropyrimidine-2,4(1H,3H)-dione]	≤ 50 nM	80 to 100%	≤ 50 nM	≤ 50 nM	≤ 50 nM

The remaining lines, values ahead:

DC50 [1]	Dmax [1]	IC50 [2]	IC50 [3]	IC50 [4]	Structure (SMILES)
≤ 50 nM	80 to 100%	≤ 50 nM	100 to 500 nM	≤ 50 nM	CCc1cccc2cc(O)cc(-c3ncc4c(N5CCC[C@@](C)(O)C5)nc(OCC5(CN6CCN(CC7CCC8(CC7)CCN(C(=O)c7ccc(Cl)c(N9CCC(=O)NC9=O)c7)CC8)CC6)CC5)nc4c3F)c12 [Example 3, (R)-1-(2-chloro-5-(9-((4-((1-(((7-(8-ethyl-3-hydroxynaphthalen-1-yl)-8-fluoro-4-(3-hydroxy-3-methylpiperidin-1-yl)pyrido[4,3-d]pyrimidin-2-yl)oxy)methyl)cyclopropyl)methyl)piperazin-1-yl)methyl)-3-azaspiro[5.5]undecane-3-carbonyl)phenyl)dihydropyrimidine-2,4(1H,3H)-dione]
≤ 50 nM	80 to 100%	≤ 50 nM	≤ 50 nM	≤ 50 nM	C#Cc1c(F)ccc2cc(O)cc(-c3ncc4c(N5CCC[C@@](C)(O)C5)nc(OCC5(CN6CCN(CC7CCC8(CC7)CCN(C(=O)c7ccc(OC)c(N9CCC(=O)NC9=O)c7)CC8)CC6)CC5)nc4c3F)c12 [Example 7, (R)-1-(5-(9-((4-((1-(((7-(8-ethynyl-7-fluoro-3-hydroxynaphthalen-1-yl)-8-fluoro-4-(3-hydroxy-3-methylpiperidin-1-yl)pyrido[4,3-d]pyrimidin-2-yl)oxy)methyl)cyclopropyl)methyl)piperazin-1-yl)methyl)-3-azaspiro[5.5]undecane-3-carbonyl)-2-methoxyphenyl)dihydropyrimidine-2,4(1H,3H)-dione]
≤ 50 nM	80 to 100%	50 to 100 nM	≤ 50 nM	≤ 50 nM	C#Cc1cccc2cc(O)cc(-c3ncc4c(N5CCC[C@@](C)(O)C5)nc(OCC5(CN6CCN(CC7CCC8(CC7)CCN(C(=O)c7ccc(Cl)c(N9CCC(=O)NC9=O)c7)CC8)CC6)CC5)nc4c3F)c12 [Example 11, (R)-1-(2-chloro-5-(9-((4-((1-(((7-(8-ethynyl-3-hydroxynaphthalen-1-yl)-8-fluoro-4-(3-hydroxy-3-methylpiperidin-1-yl)pyrido[4,3-d]pyrimidin-2-yl)oxy)methyl)cyclopropyl)methyl)piperazin-1-yl)methyl)-3-azaspiro[5.5]undecane-3-carbonyl)phenyl)dihydropyrimidine-2,4(1H,3H)-dione]
